Where a name gives a salt, the structure may show the parent alone.
Tests used:
Assay type in all cases: in vivo
[1] = test system: Italian ryegrass (Lolium multiflorum); test: Herbicidal effect, foliar spray pot test (Example 349); conditions: sprayed 21 days after seeding, evaluated after 4 days, rating 0 to 100
Protocol: (§1) The formulation (1-41) was produced in the same manner as in Example 348.
(§2) After filling a plastic pot with soil, common barnyardgrass (Echinochloa crus-galli) and Italian ryegrass (Lolium multiflorum) were seeded therein and grown in a greenhouse. The weeds were then cultivated in the greenhouse, and 21 days after seeding, a spray liquid containing the formulation (1-41) and/or EnlistOne (670 g/L of 2,4-D choline salt, manufactured by Dow AgroSciences) prepared so that the application rate of the compound (I-41) might be 20 g/ha and the application rate of EnlistOne might be 798 g/ha as an equivalent of 2,4-D choline salt (1.754 L/ha (24 fluid ounce/acre) as […]) was uniformly sprayed above the pot using a spraying machine so that the spray liquid amount might be 218 L/ha. Thereafter, the weeds were grown in the greenhouse for 4 days and the herbicidal effect was evaluated.
(§3) From the results of the herbicidal effect (value of A or B) for the single use of each of the compounds, the expected value of the herbicidal effect when the compounds were combined was determined according to the Colby's equation: […]

[2] = test system: common barnyardgrass (Echinochloa crus-galli); test: as above; conditions: sprayed 21 days after seeding, evaluated after 4 days, rating 0 to 100
Protocol: as §1, §2, §3

[3] = test system: Italian ryegrass (Lolium multiflorum); test: Herbicidal effect, foliar spray pot test (Example 346); conditions: sprayed 17 days after seeding, evaluated after 4 days, rating 0 to 100
Protocol: (§4) The compound (I-15) (55 mg), 76.5 mg of Emulsogen TS290 (polyoxyethylene tristyryl phenyl ether, manufactured by Clariant) and 76.5 mg of Phenylsulfonat CAL (mixture of 70% calcium dodecylbenzenesulfonate and 30% iso-butanol, manufactured by Clariant) were dissolved in Solvesso 200ND (aromatic hydrocarbon, manufactured by Exxon Mobile Corporation) to make 1 ml in total, thus producing an emulsifiable concentrate (hereinafter referred to as formulation (I-15)).
(§5) After filling a plastic pot with soil, common barnyardgrass (Echinochloa crus-galli) and Italian ryegrass (Lolium multiflorum) were seeded therein and grown in a greenhouse. The weeds were then cultivated in the greenhouse, and 17 days after seeding, a spray liquid containing the formulation (1-15) and/or Roundup PowerMax (660 g/L of glyphosate potassium salt, manufactured by Monsanto Company) prepared so that the application rate of the compound (I-15) might be 20 g/ha and the application rate of Roundup PowerMax might be 1262 g/ha as an equivalent of glyphosate acid (2.338 L/ha (32 fluid ounce/acre) as Roundup PowerMax) was uniformly sprayed above the pot using a spraying machine so that the spray liquid amount may be 218 L/ha. Thereafter, the weeds were grown in the greenhouse for 4 days and the herbicidal effect was evaluated.
as §3

[4] = test system: common barnyardgrass (Echinochloa crus-galli); test: as above; conditions: sprayed 17 days after seeding, evaluated after 4 days, rating 0 to 100
Protocol: as §4, §5, §3

[5] = test system: Italian ryegrass (Lolium multiflorum); test: Herbicidal effect, foliar spray pot test (Example 347); conditions: sprayed 17 days after seeding, evaluated after 4 days, rating 0 to 100
Protocol: (§6) The formulation (I-15) was produced in the same manner as in Example 346.
(§7) After filling a plastic pot with soil, common barnyardgrass (Echinochloa crus-galli) and Italian ryegrass (Lolium multiflorum) were seeded therein and grown in a greenhouse. The weeds were then cultivated in the greenhouse, and 17 days after seeding, a spray liquid containing the formulation (1-15) and/or Xtendimax (350 g/L of dicamba diglycolamine salt, manufactured by Monsanto Company) prepared so that the application rate of the compound (I-15) might be 20 g/ha and the application rate of Xtendimax might be 560 g/ha as an equivalent of dicamba acid (1.608 L/ha (22.0 fluid ounce/acre) as Xtendimax) was uniformly sprayed above the pot using a spraying machine so that the spray liquid amount might be 218 L/ha. Thereafter, the weeds were grown in the greenhouse for 4 days and the herbicidal effect was evaluated.
as §3

[6] = test system: common barnyardgrass (Echinochloa crus-galli); test: as above; conditions: sprayed 17 days after seeding, evaluated after 4 days, rating 0 to 100
Protocol: as §6, §7, §3

[7] = test system: weeds; test: Examples 1 to 23 with compound (I-15) replaced by another compound (I) (Examples 24 to 115); conditions: as Examples 1 to 23 with compound (I-15) replaced; used with pyroxasulfone, saflufenacil, flumioxazin and/or glyphosate-potassium salt; crop soybean, corn or cotton
[8] = test system: Italian ryegrass (Lolium multiflorum); test: Herbicidal effect, foliar spray pot test (Example 348); conditions: sprayed 17 days after seeding, evaluated after 4 days, rating 0 to 100
Protocol: as §4, with “(I-41)” for “(I-15)”, “(I-41)).” for “(I-15)).”
(§8) After filling a plastic pot with soil, common barnyardgrass (Echinochloa crus-galli) and Italian ryegrass (Lolium multiflorum) were seeded therein and grown in a greenhouse. The weeds were then cultivated in the greenhouse, and 17 days after seeding, a spray liquid containing the formulation (1-41) and/or Liberty (280 g/L of glufosinate ammonium salt, manufactured by Bayer) prepared so that the application rate of the compound (I-41) might be 20 g/ha and the application rate of Liberty might be 594 g/ha as glufosinate ammonium salt (2.12 L/ha (29.0 fluid ounce/acre) as Liberty) was uniformly sprayed above the pot using a spraying machine so that the spray liquid amount might be 218 L/ha. Thereafter, the weeds were grown in the greenhouse for 4 days and the herbicidal effect was evaluated.
as §3

[9] = test system: common barnyardgrass (Echinochloa crus-galli); test: as above; conditions: sprayed 17 days after seeding, evaluated after 4 days, rating 0 to 100
Protocol: as §4, with “(I-41)” for “(I-15)”, “(I-41)).” for “(I-15)).”
as §8, §3

[10] = 2,4-D choline salt 798 g/ha (EnlistOne) alone
[11] = compound (I-15) 20 g/ha alone, 218 L/ha
[12] = compound (I-41) 20 g/ha alone, 218 L/ha
[13] = dicamba diglycolamine salt 560 g/ha (dicamba acid equivalent, Xtendimax) alone
[14] = glufosinate ammonium salt 594 g/ha (Liberty) alone
[15] = glyphosate potassium salt 1,262 g/ha (glyphosate acid equivalent, Roundup PowerMax) alone

In the case of `C[N+](C)(C)CCO.O=C([O-])COc1ccc(Cl)cc1Cl` [2,4-D choline salt, reference compound], the “Herbicidal effect Observed value” [1, 10] was 5 and the “Herbicidal effect Observed value” [2, 10] was 10.

In the case of `COC(=O)C(C)OC(=O)C1(Oc2cc(-n3c(=O)cc(C(F)(F)F)n(C)c3=O)c(F)cc2Cl)CC1` (centres unmarked) [Compound (I-15)], the “Herbicidal effect Observed value” [3, 11] was 20, the “Herbicidal effect Observed value” [4, 11] was 70 and the “Herbicidal effect Observed value” [5, 11] was 20. The “Herbicidal effect Observed value” [6, 11] was 70.

For `CCOC(=O)C(C)OC(=O)C1(Oc2cc(-n3c(=O)cc(C(F)(F)F)n(C)c3=O)c(F)cc2Cl)CC1` (centres unmarked) [Compound (I-29)], the “weed control effect compared to the single use of each of the compounds” value [7] was “synergistic weed control effect”.

With `CCOC(=O)C(C)(C)OC(=O)C1(Oc2cc(-n3c(=O)cc(C(F)(F)F)n(C)c3=O)c(F)cc2Cl)CC1` [Compound (I-30)] the “weed control effect compared to the single use of each of the compounds” value [7] was “synergistic weed control effect”.

With `CCOC(=O)C(CC)OC(=O)C1(Oc2cc(-n3c(=O)cc(C(F)(F)F)n(C)c3=O)c(F)cc2Cl)CC1` (centres unmarked) [Compound (I-33)] the “weed control effect compared to the single use of each of the compounds” value [7] was “synergistic weed control effect”.

`CCOC(=O)C1(OC(=O)C2(Oc3cc(-n4c(=O)cc(C(F)(F)F)n(C)c4=O)c(F)cc3Cl)CC2)CC1` [Compound (I-41)] was tested, and the “Herbicidal effect Observed value” [8, 12] was 20, the “Herbicidal effect Observed value” [9, 12] was 50 and the “Herbicidal effect Observed value” [1, 12] was 20. For the same compound, the “Herbicidal effect Observed value” [2, 12] was 70 and the “weed control effect compared to the single use of each of the compounds” value [7] was “synergistic weed control effect”.

`COc1c(Cl)ccc(Cl)c1C(=O)O.NCCOCCO` [Dicamba diglycolamine salt, dicamba diglycolamine salt, reference compound] was tested, and the “Herbicidal effect Observed value” [5, 13] was 0 and the “Herbicidal effect Observed value” [6, 13] was 5.

With `CP(=O)(O)CCC(N)C(=O)O` (centres unmarked) [Glufosinate ammonium salt, glufosinate ammonium salt, reference compound] the “Herbicidal effect Observed value” [8, 14] was 40 and the “Herbicidal effect Observed value” [9, 14] was 70.

For `O=C(O)CNCP(=O)(O)O` [Glyphosate potassium salt, reference compound], the “Herbicidal effect Observed value” [3, 15] was 10 and the “Herbicidal effect Observed value” [4, 15] was 30.
